Laboratory results published in ChEMBL document CHEMBL1133382, “Probing the extended binding determinants of oligosaccharyl transferase with synthetic inhibitors of asparagine-linked glycosylation” (Bioorg Med Chem Lett, 2000).
pKi: −log10 of the molar value. Starred links: 1 amine or outer side, 2 acyl side, 3 side chain; linkers in the order of their positions; H or OH if unused. Positions of bridges follow the written chain, without caps; N, C: chain ends. Non-standard residues stand in square brackets, D forms with d. Residues, ends and D or L forms follow the SMILES beside them. *: point of attachment. Phe(4-NO2) = N[C@@H](Cc1ccc([N+](=O)[O-])cc1)C(=O)O; X1 = O=C(CCCCC[*:2])[*:1]; Dab = NCC[C@H](N)C(=O)O; X3 = c1ccc2cc(*)ccc2c1

Biological target: T1, Dolichyl-diphosphooligosaccharide--protein glycosyltransferase 48 kDa subunit (UniProt P39656)
T1 sequence (P39656 whole entry): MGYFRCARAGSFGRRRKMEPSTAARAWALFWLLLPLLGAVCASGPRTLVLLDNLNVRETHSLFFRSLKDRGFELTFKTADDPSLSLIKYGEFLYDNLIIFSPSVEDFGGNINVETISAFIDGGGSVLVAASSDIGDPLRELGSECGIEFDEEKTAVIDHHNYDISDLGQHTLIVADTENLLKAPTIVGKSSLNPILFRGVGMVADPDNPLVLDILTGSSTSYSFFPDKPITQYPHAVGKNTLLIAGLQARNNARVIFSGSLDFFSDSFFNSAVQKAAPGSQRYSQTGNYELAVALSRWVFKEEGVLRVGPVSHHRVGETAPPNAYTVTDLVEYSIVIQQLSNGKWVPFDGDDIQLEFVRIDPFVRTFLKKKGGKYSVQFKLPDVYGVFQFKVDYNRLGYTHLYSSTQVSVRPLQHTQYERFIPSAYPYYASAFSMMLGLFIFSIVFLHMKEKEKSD
Assay: Inhibition of asparagine-linked glycosylation by oligosaccharyl transferase
Parameters: species or system Saccharomyces cerevisiae

Compound	pKi
CC(C)[C@H](NC(=O)[C@@H](NC(=O)[C@@H]1CSCCCCCC(=O)N[C@@H](CCN)C(=O)N1)[C@@H](C)O)C(=O)N[C@H](C(N)=O)[C@@H](C)O	7.09
CC(C)[C@H](NC(=O)[C@@H](NC(=O)[C@@H]1CSCCCCCC(=O)N[C@@H](CCN)C(=O)N1)[C@@H](C)O)C(=O)N[C@H](C(=O)NCCCCc1ccccc1)[C@@H](C)O	7.30
CC(C)[C@H](NC(=O)[C@@H](NC(=O)[C@@H]1CSCCCCCC(=O)N[C@@H](CCN)C(=O)N1)[C@@H](C)O)C(=O)N[C@H](C(=O)NCCc1ccccc1)[C@@H](C)O	7.36
CC(C)[C@H](NC(=O)[C@@H](NC(=O)CNC(=O)[C@H](CCCNCc1ccccc1)NCc1ccccc1)[C@@H](C)O)C(=O)N[C@H](C(N)=O)[C@H](C)O	< 5.30
CCCCCCCCCCNCC[C@@H]1NC(=O)CCCCCSC[C@@H](C(=O)N[C@H](C(=O)N[C@H](C(=O)N[C@H](C(=O)N[C@@H](Cc2ccc([N+](=O)[O-])cc2)C(N)=O)[C@@H](C)O)C(C)C)[C@@H](C)O)NC1=O	7.21
CC(C)[C@H](NC(=O)[C@@H](NC(=O)[C@@H]1CSCCCCCC(=O)N[C@@H](CCNc2ccc3ccccc3c2)C(=O)N1)[C@@H](C)O)C(=O)N[C@H](C(=O)NCCc1ccc([N+](=O)[O-])cc1)[C@@H](C)O	8.00
CC(C)[C@H](NC(=O)[C@@H](NC(=O)[C@@H]1CSCCCCCC(=O)N[C@@H](CCN)C(=O)N1)[C@@H](C)O)C(=O)N[C@H](C(=O)NCCc1ccc([N+](=O)[O-])cc1)[C@@H](C)O	7.70
COc1ccc(CNCCC[C@H](NCc2ccccc2)C(=O)NCC(=O)N[C@H](C(=O)N[C@H](C(=O)N[C@H](C(N)=O)[C@@H](C)O)C(C)C)[C@@H](C)O)cc1 (HELM PEPTIDE1{[COc1ccc(CNCCC[C@H](NCc2ccccc2)C(=O)[*:2])cc1].G.T.V.T.[am]}$$$$V2.0)	6.52
[H][C@@](NC(=O)[C@@H]1CSCCCCCC(=O)N[C@@H](CCN)C(=O)N1)(C(=O)N[C@H](C(=O)N[C@H](C(=O)N[C@@H](Cc1ccc([N+](=O)[O-])cc1)C(N)=O)[C@@H](C)O)C(C)C)[C@@H](C)O (HELM PEPTIDE1{[Dab].C.T.V.T.[O=C([C@H](Cc1ccc([N+](=O)[O-])cc1)N[*:1])[*:2]].[am]}|CHEM1{[O=C(CCCCC[*:2])[*:1]]}$PEPTIDE1,CHEM1,1:R1-1:R1|PEPTIDE1,CHEM1,2:R3-1:R2$$$V2.0)	7.43
CC(C)[C@H](NC(=O)[C@@H](NC(=O)CNC(=O)[C@H](CCCNCc1ccc([N+](=O)[O-])cc1)NCc1ccccc1)[C@@H](C)O)C(=O)N[C@H](C(N)=O)[C@@H](C)O (HELM PEPTIDE1{[O=C([C@H](CCCNCc1ccc([N+](=O)[O-])cc1)NCc1ccccc1)[*:2]].G.T.V.T.[am]}$$$$V2.0)	6.81
CC(C)[C@H](NC(=O)[C@@H](NC(=O)[C@@H]1CSCCCCCC(=O)N[C@@H](CCNc2ccc3ccccc3c2)C(=O)N1)[C@@H](C)O)C(=O)N[C@H](C(=O)N[C@@H](Cc1ccc([N+](=O)[O-])cc1)C(N)=O)[C@@H](C)O ([Dab](X3)CTVT[Phe(4-NO2)]-NH2; linker N-2 via X1)	7.40
